Molecules are shown by their SMILES.

As a reminder, the IC50 is the concentration needed to halve the response being measured. A low value points to greater potency in that assay.

Data set [1] has as its system TNFα production in human monocytes stimulated with LPS. In words: Inhibition of TNFα production in human monocytes stimulated with LPS (in vitro). The settings on record: Monocyte; human mononuclear peripheral blood cells, LPS 10 ng/ml, 24 hours, ELISA; average of at least two determinations. Type of data set: cell-based. The method, then:
The compounds were dissolved in DMSO to a final concentration of 120 mM and were stored at −80° C. The solutions for the test were prepared by diluting the mother solutions in RPMI 1640 with the addition of 1% FCS and 0.01% DMSO and were filtered with 0.2 μm filters.
Mononuclear peripheral blood cells were obtained from “buffy coats” of healthy donors by separation in a Ficoll-Hypaque gradient. The cells were spread in plates with 96 wells at a concentration of about 500,000 cells per well, suspended in RPMI 1640 containing 1% FCS and were incubated at 37° C. in the presence of various concentrations (from 10^−6 to 10^−11 M) of the compounds to be tested.
After 1 hour, LPS was added (to a final concentration of 10 ng/ml; obtained from E. coli 055:B5) and the plates were incubated at 37° C. for a further 24 hours. Upon completion, the supernatant fluids were collected and used for the determination of the TNFα content by ELISA (ELISA Duoset Kit; R&D systems, Minneapolis, Minn., USA).
The concentration of TNFα was calculated with the use of a calibration curve and the IC50 values (concentration which inhibits the production of the cytokine by 50%) were calculated from the curve obtained, giving the percentage inhibition values for each individual concentration of the compound under test.
The values obtained for the compounds described in the preceding examples are given in the following table (the values are the average of the results obtained in at least two determinations, performed with cells of different donors).

A further data set concerns TNFα production. In words: Inhibition of TNFα production in mice induced by LPS (in vivo). The settings on record: CD1 female mice, 1 mg/kg orally 60 min. prior to LPS 2 mg/kg i.p., blood TNFα 90 min. after LPS. The method, then:
For the compounds of the present invention, the capacity to inhibit TNFα production induced by the administration of LPS was evaluated in mice.
A lethal quantity of LPS (E. coli 055:B5; 2 mg/kg) was administered to the animals (CD1 female mice) by an intraperitoneal route; 90 min. after administration, the animals were killed and the TNFα content present in the blood was determined by ELISA assay.
The compounds under test, suspended in Methyl Cellosolve (0.5% in water), were administered orally, 60 min. prior to the administration of LPS, at a dose of 1 mg/kg.
The results are given in the following table; the values are expressed as percentage inhibition of TNFα production in comparison with the control group.

Data set [2] in a line: Metabolic resistance in vitro, S9 liver fraction. Type of data set: in vitro ADME. Particulars: 6 μg/ml, 37° C., phosphate buffer pH 7.4, S9 fraction protein content 2 mg/ml. The procedure: The metabolic resistance of some compounds described in the preceding examples was evaluated by incubating the substances with the S9 fraction of a microsomal preparation of liver cells. Each compound (6 μg/ml) was incubated at 37° C. for 30 min. in phosphate buffer (pH 7.4) containing the S9 fraction (protein content 2 mg/ml). The reaction was stopped by cooling in an ice bath and adding an equal volume of water/acetonitrile (50:50) containing 0.2% of trifluoroacetic acid. After centrifuging, an aliquot of the supernatant fluid was analyzed by HPLC to evaluate the percentage of product that had remained intact.

The subject of data set [3] is human HEP-G2 hepatoma cell line. In words: Cytotoxicity in vitro on HEP-G2 cells (formazane colorimetric assay). The format is cell-based. Particulars: 48 h. The method, then:
The cytotoxicity of some compounds described in the preceding examples was evaluated in vitro on the human HEP-G2 hepatoma cell line by a commercial colorimetric method (Cell Titer 96® Aqueous One Solution Cell Proliferation Assay—Promega); the method determines the number of living cells on the basis of their ability to metabolize a tetrazolium salt producing formazane. The quantity of formazane produced is proportional to the number of living cells.
The HPE-G2 cells were distributed in micro-plates with 96 wells at a density of 4×10^4 cells/well (100 μl) in M199 medium containing 10% of bovine foetal serum and supplements (complete medium).
After incubation for 24 h (37° C., 5% CO2, 90% humidity) the cells were washed once and the medium was replaced with 200 μl of complete medium containing the substances to be tested at final concentrations of 10^−5, 10^−6 and 10^−7 M. The test was performed in triplicate.
The plates were incubated for a further 48 h, after which 100 μl of medium was removed and 20 μl per well of dye solution was added in accordance with the supplier's instructions. The optical density (λ=490 nm) was read after incubation for 1 h at 37° C. with the use of a plate reader (Victor 2—Wallace Perkin Elmer).
The results are expressed as the percentage inhibition of the formation of formazane in comparison with the control.

In a further data set the target is mouse HDAC-1 enzyme (Mus musculus, UniProt O09106). The experiment in a line: Inhibition of the enzymatic activity of histone deacetylase. The format is biochemical. The method, then:
The capacity of the compounds of the invention to inhibit the activity of the histone deacetylase enzyme was evaluated with the use of the mouse HADC-1 enzyme. The assay was performed by the method already described in the literature [Biochem. Biophys. Acta, 1996, vol. 1296, p. 181]. The IC50 values (concentration which inhibits the activity of the enzyme by 50%) were derived from the percentages of inhibition obtained with various concentrations of the compound under test; these values are given in the following table.

Chain of mouse HDAC-1 enzyme (O09106 whole entry): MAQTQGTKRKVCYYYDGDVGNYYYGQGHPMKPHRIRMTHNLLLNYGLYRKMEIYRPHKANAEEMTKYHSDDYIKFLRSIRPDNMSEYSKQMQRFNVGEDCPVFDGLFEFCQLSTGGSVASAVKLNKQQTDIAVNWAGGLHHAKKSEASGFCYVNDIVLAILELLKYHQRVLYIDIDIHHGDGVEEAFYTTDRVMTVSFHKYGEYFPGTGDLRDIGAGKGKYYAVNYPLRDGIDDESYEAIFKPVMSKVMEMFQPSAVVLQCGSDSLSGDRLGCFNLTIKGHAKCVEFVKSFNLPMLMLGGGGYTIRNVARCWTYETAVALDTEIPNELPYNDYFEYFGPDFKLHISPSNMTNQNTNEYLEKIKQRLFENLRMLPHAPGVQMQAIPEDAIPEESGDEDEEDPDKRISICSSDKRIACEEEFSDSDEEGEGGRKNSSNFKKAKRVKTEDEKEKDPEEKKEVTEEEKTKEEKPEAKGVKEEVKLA

Take `O=C(Cc1ccc(C(F)(F)F)cc1)Nc1ccc(C(=O)NO)cc1` [Ex. 01, N-hydroxy-4-[2-(4-trifluoromethyl-phenyl)-acetylamino]-benzamide]: the concentration for half-maximal inhibition (IC50) in data set [1] is 14.5 nM; against mouse HDAC-1 enzyme, 142 nM. In the data set on TNFα production, the “Inhibition of TNFα production in comparison with the control group” value (“Inhibition of TNFα production” for short) is recorded as 67%. The “Residual product after 30 min.” value in data set [2] amounted to 78.9%. Moreover, the “Cytotoxicity at 10^−6 M (percentage inhibition of the formation of formazane)” value in data set [3] came to 3.8%.
For `CC(CC(=O)Nc1ccc(C(=O)NO)cc1)c1ccccc1` (stereo not drawn) [Ex. 02, N-hydroxy-4-(3-phenyl-butyrylamino)-benzamide], the IC50 in data set [1] was 76 nM.
Take `COc1cccc(CCC(=O)Nc2ccc(C(=O)NO)cc2)c1` [Ex. 03, N-hydroxy-4-[3-(3-methoxy-phenyl)-propionylamino]-benzamide]: the IC50 turned out to be 26 nM in data set [1] and 219 nM at mouse HDAC-1 enzyme. The “Inhibition of TNFα production” value in the data set with TNFα production is listed as 56%. Moreover, the “Residual product after 30 min.” value in data set [2] was found to be 60.7%. In addition, in data set [3], the “Cytotoxicity at 10^−6 M (percentage inhibition of the formation of formazane)” value stood at 7.3%.
Take `COc1ccc(CC(=O)Nc2ccc(C(=O)NO)cc2)cc1` [Ex. 04, N-hydroxy-4-[2-(4-methoxy-phenyl)-acetylamino]-benzamide]: the IC50 in data set [1] amounted to 51.5 nM; on mouse HDAC-1 enzyme, 113 nM. For the same compound, the “Inhibition of TNFα production” value with TNFα production was 42%. Moreover, the “Residual product after 30 min.” value in data set [2] amounted to 90.2%. In addition, in data set [3], the “Cytotoxicity at 10^−6 M (percentage inhibition of the formation of formazane)” value is 0%.
`CCOc1ccc(CC(=O)Nc2ccc(C(=O)NO)cc2)cc1` [Ex. 05, N-hydroxy-4-[2-(4-ethoxy-phenyl)-acetylamino]-benzamide]: the values for the concentration for half-maximal inhibition (IC50) (in data set [1]; against mouse HDAC-1 enzyme) were 32 nM and 90 nM, respectively. The “Residual product after 30 min.” value in data set [2] was found to be 89.0%. The “Cytotoxicity at 10^−6 M (percentage inhibition of the formation of formazane)” value in data set [3] was 0%.
The corresponding values for `O=C(CCc1cc(C(F)(F)F)cc(C(F)(F)F)c1)Nc1ccc(C(=O)NO)cc1` [Ex. 06, N-hydroxy-4-[3-(3,5-bis-trifluoromethyl-phenyl)-propionyl-amino]-benzamide] are 17 nM, 19 nM, 68.4% and 13%.
On to `COc1cc(CC(=O)Nc2ccc(C(=O)NO)cc2)cc(OC)c1OC` [Ex. 07, N-hydroxy-4-[2-(3,4,5-trimethoxy-phenyl)-acetylamino]-benzamide], for which the IC50 stood at 45 nM in data set [1] and 14 nM on mouse HDAC-1 enzyme.
The corresponding values for `CSc1ccc(CC(=O)Nc2ccc(C(=O)NO)cc2)cc1` [Ex. 08, N-hydroxy-4-[2-(4-methylsulphanil-phenyl)-acetylamino]-benzamide] are 320 nM and 58 nM.
The corresponding values for `O=C(Cc1cccc(C(F)(F)F)c1)Nc1ccc(C(=O)NO)cc1` [Ex. 09, N-hydroxy-4-[2-(3-trifluoromethyl-phenyl)-acetylamino]-benzamide] are 70 nM and 67 nM.
The corresponding values for `O=C(Cc1cccc([N+](=O)[O-])c1)Nc1ccc(C(=O)NO)cc1` [Ex. 10, N-hydroxy-4-[2-(3-nitro-phenyl)-acetylamino]-benzamide] are 134 nM and 130 nM.
`O=C(Cc1cccc(Oc2ccccc2)c1)Nc1ccc(C(=O)NO)cc1` [Ex. 11, N-hydroxy-4-[2-(3-phenoxy-phenyl)-acetylamino]-benzamide]: the IC50 was determined as 108 nM in data set [1] and 102 nM against mouse HDAC-1 enzyme.
The corresponding values for `O=C(Cc1ccc(-c2ccccc2)cc1)Nc1ccc(C(=O)NO)cc1` [Ex. 12, N-hydroxy-4-[2-(diphenyl-4-yl)-acteylamino]-benzamide] are 227 nM and 7 nM.
As for `COc1cccc(CC(=O)Nc2ccc(C(=O)NO)cc2)c1OC` [Ex. 13, N-hydroxy-4-[2-(2,3-dimethoxy-phenyl)-acetylamino]-benzamide], the 50% inhibitory concentration (IC50) in data set [1] was 187 nM; against mouse HDAC-1 enzyme it was 202 nM.
The corresponding values for `O=C(CCc1ccccc1OC(=O)c1ccccc1)Nc1ccc(C(=O)NO)cc1` [Ex. 14, 2-[2-(4-hydroxycarbamoyl-phenylcarbamoyl)-ethyl]-phenyl ester of benzoic acid] are 157 nM and 106 nM.
For `O=C(Cc1ccc([N+](=O)[O-])cc1)Nc1ccc(C(=O)NO)cc1` [Ex. 15, N-hydroxy-4-[2-(4-nitro-phenyl)-acteylamino]-benzamide], the values for the IC50 (in data set [1]; on mouse HDAC-1 enzyme) were 27 nM and 146 nM, respectively. The “Cytotoxicity at 10^−6 M (percentage inhibition of the formation of formazane)” value in data set [3] is listed as 0%.
Turning to `O=C(Cc1ccccc1Oc1ccccc1)Nc1ccc(C(=O)NO)cc1` [Ex. 16, N-hydroxy-4-[2-(2-phenoxy-phenyl)-acetylamino]-benzamide], the figures for the half-inhibitory concentration (IC50) (in data set [1]; against mouse HDAC-1 enzyme) were 259 nM and 118 nM, respectively.
For `COc1cc(CC(=O)Nc2ccc(C(=O)NO)cc2)c([N+](=O)[O-])cc1OC` [Ex. 17, N-hydroxy-4-[2-(4,5-dimethoxy-2-nitro-phenyl)-acetylamino]-benzamide], the IC50 in data set [1] was found to be 280 nM; against mouse HDAC-1 enzyme, 255 nM.
Consider `O=C(Cc1ccccc1OCc1ccccc1)Nc1ccc(C(=O)NO)cc1` [Ex. 18, N-hydroxy-4-[2-(2-benzyloxy-phenyl)-acetylamino]-benzamide], for which the results for the IC50 (in data set [1]; on mouse HDAC-1 enzyme) were 391 nM and 112 nM, respectively.
The corresponding values for `O=C(Cc1ccccc1[N+](=O)[O-])Nc1ccc(C(=O)NO)cc1` [Ex. 19, N-hydroxy-4-[2-(2-nitro-phenyl)-acetylamino]-benzamide] are 1000 nM and 214 nM.
